Source: ChEMBL document CHEMBL1201862, “PubChem BioAssay data set” (2004)
Calls of active or inactive are those of the source.

Columns and labels:
[1] = target: DNA dC->dU-editing enzyme APOBEC-3G (Homo sapiens, UniProt Q9HC16); assay: Dose Response confirmation of small molecule APOBEC3G DNA Deaminase Inhibitors via a fluorescence-based single-stranded DNA deaminase assay. [Related pubchem assays (depositor defined):AID493012, AID493028]; assay type: functional
[2] = target: Glyceraldehyde-3-phosphate dehydrogenase (Homo sapiens, UniProt P04406)
cells [3] = assay type: functional, cell-based
cells [4] = assay type: functional, cell-based; remark: listed apart in the source
[5] = HEK-293T cell viability reduction – luminescence, B-cell screen hits, cytotoxicity control for BCR NF-kB inhibitor project, dose response (AID 489021); assay type: functional, cell-based;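 further: HEK-293T cells carrying an NF-kB luciferase reporter; cells exposed to compound for about 14 hours before viability readout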
[6] = target: T1, RNA-binding protein pos-1 (Caenorhabditis elegans, UniProt G5EF15); assay: disruptors of C. elegans POS-1 RNA interaction – biochemical, fluorescence polarization, dose response (AID 1964);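 further: purified POS-1 fused to maltose binding protein made in E. coli; potency of compounds blocking POS-1 binding to fluorescent RNA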
T1 sequence (G5EF15 whole entry): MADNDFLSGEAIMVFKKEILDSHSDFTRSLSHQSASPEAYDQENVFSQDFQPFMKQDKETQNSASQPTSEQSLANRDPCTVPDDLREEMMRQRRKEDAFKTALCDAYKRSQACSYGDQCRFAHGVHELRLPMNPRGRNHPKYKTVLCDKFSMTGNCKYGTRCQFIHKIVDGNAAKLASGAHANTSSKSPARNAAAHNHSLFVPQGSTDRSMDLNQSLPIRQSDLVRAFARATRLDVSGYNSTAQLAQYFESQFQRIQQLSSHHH

[7] = target: FAD-linked sulfhydryl oxidase ALR (Homo sapiens, UniProt P55789); assay: ALR-catalysed DTT oxidation blockers – biochemical, H2O2 detection, luminescence, cherry-pick, dose response (AID 493248)
Genome polyprotein = Genome polyprotein (dengue virus type 2, UniProt P29990); assay: flavivirus cap methylation enzyme inhibition – biochemical, confirmation dose response, primary screen (AID 588689); assay type: functional
[8] = target: T2, Zinc finger protein mex-5 (Caenorhabditis elegans, UniProt Q9XUB2); assay: potency of MEX-5 RNA-binding blockers – biochemical, C. elegans, fluorescence polarization, dose response (AID 1960)
T2 sequence (Q9XUB2 whole entry): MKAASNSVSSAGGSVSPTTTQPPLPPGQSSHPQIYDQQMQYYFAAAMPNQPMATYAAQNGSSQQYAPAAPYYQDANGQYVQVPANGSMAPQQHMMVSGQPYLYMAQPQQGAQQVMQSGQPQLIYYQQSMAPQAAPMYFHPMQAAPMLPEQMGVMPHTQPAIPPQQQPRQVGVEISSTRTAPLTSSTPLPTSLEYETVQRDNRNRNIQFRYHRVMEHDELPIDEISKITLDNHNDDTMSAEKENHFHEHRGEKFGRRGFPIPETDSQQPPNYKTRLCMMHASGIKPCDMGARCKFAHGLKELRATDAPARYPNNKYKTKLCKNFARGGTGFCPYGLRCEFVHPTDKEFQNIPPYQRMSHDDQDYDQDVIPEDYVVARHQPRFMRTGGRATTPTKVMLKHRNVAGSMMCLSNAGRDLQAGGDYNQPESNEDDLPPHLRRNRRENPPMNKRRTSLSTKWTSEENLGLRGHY

cells [9] = assay type: functional
[10] = target: T3, Endoribonuclease toxin MazF (Escherichia coli K-12, UniProt P0AE70); assay: activation of MazEF endoribonuclease cleavage – biochemical, fluorescence, single-stranded RNA substrate, uHTS hits, dose response (AID 588481); assay type: functional
T3 sequence (P0AE70 whole entry): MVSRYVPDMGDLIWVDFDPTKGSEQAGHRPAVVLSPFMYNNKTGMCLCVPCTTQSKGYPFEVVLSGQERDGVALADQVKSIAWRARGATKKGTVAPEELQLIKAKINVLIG

[11] = target: T3, Endoribonuclease toxin MazF; assay: substrate-only fluorescence increase artefacts – biochemical, single-stranded RNase substrate, counter-screen for MazEF activator project, dose response (AID 588502); assay type: functional
[12] = target: Luciferin 4-monooxygenase (Photinus pyralis, UniProt P08659); assay: inhibition of purified Photinus pyralis luciferase – biochemical, luminescence, dose response (AID 1891)
[13] = Luminescence Cell-Based Dose Confirmation HTS to Identify Inhibitors of Platelet Dense Granule Release. [Related pubchem assays: 1663 (Primary HTS), 1678 (Summary of Project)]; assay type: functional
[14] = target: T4, Microphthalmia-associated transcription factor (Homo sapiens, UniProt O75030); assay: reducers of TRPM1 reporter luminescence, concentration series – cell-based, SK-MEL-5, cherry-picked, set 3, MITF inhibitor project, dose response (AID 493073); assay type: functional;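 further: SK-MEL-5 melanoma cells with luciferase driven by the MITF target TRPM1 promoter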
T4 sequence (O75030 whole entry): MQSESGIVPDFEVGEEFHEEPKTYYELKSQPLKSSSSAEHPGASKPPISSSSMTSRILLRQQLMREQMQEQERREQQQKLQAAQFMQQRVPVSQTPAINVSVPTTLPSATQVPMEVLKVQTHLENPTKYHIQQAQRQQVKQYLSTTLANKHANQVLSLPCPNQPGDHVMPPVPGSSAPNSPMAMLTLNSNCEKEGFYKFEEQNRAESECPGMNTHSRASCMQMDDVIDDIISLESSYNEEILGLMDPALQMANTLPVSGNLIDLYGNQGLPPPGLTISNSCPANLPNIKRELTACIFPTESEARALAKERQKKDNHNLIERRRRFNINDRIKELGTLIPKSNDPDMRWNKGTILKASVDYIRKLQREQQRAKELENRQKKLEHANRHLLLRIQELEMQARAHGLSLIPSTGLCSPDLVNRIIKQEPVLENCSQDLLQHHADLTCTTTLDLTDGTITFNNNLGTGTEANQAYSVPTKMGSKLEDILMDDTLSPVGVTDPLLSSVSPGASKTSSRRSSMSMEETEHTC

[15] = viability of uninfected HEp-2 cells – cell-based, HTS, cytotoxicity control for RSV inhibitor project, dose response (AID 2410); assay type: functional; details: human respiratory syncytial virus
Large T antigen = Large T antigen (Simian virus 40, UniProt P03070); assay type: functional, Betapolyomavirus macacae;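 further: Confirmatory-stage PubChem screen for compounds that inhibit SV40 T antigen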
[16] = target: T5, Rac GTPase-activating protein 1 (Homo sapiens, UniProt Q9H0H5); assay: blockers of MgcRacGAP-driven Rac1 GTP hydrolysis – biochemical, ADP Hunter fluorescence, primary and confirmatory, confirmation (AID 624330); assay type: functional
T5 sequence (Q9H0H5 whole entry): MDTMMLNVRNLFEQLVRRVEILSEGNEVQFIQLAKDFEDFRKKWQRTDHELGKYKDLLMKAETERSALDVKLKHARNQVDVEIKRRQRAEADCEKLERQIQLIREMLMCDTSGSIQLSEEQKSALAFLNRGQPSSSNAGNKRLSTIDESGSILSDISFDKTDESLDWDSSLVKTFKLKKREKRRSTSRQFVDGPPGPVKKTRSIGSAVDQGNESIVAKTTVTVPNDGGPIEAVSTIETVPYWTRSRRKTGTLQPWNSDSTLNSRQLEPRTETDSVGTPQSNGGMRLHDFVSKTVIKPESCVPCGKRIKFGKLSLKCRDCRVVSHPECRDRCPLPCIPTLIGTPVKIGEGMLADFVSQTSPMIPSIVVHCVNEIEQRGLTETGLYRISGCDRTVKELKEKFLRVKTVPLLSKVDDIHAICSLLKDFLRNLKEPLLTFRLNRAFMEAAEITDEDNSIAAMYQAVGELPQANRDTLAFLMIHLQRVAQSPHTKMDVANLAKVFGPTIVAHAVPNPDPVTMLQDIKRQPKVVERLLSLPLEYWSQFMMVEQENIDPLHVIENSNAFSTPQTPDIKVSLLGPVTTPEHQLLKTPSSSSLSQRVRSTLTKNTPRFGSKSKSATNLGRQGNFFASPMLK

[17] = Trypanosoma cruzi growth suppression in host cells – NIH3T3 host cells, beta-gal luminescence, confirmation (AID 2044); assay type: functional, cell-based;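 further: intracellular parasites grown in NIH/3T3 mouse fibroblasts as host cells; luminescent beta-galactosidase reporter signal from transgenic T. cruzi replicating inside host cells; inhibitors lower the luminescence signal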
[18] = NIH3T3 cell viability loss – ATP luminescence, mouse fibroblasts, counter-screen, dose response (AID 2010); assay type: functional, cell-based;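 further: cells exposed to compound for about 90 hours before reading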

Chain of Large T antigen (P03070 whole entry): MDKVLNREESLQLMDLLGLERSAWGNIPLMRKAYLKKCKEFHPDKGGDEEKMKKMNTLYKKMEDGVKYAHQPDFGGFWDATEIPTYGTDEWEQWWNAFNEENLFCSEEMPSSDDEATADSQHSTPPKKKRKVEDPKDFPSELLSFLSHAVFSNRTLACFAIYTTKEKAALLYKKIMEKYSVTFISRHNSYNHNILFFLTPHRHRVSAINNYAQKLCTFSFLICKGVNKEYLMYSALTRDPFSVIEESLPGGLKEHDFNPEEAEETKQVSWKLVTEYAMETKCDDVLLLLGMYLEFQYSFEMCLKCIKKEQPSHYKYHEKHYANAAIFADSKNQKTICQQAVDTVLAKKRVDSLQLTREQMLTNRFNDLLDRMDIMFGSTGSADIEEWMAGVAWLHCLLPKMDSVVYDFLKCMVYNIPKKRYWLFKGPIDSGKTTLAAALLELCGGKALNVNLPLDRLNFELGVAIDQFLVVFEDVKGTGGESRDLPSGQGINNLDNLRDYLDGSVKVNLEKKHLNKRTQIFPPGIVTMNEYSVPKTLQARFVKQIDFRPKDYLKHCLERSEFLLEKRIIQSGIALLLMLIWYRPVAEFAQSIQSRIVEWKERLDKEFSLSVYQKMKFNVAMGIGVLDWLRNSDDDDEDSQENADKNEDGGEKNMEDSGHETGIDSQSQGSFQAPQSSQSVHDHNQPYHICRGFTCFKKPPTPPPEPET
Chain of FAD-linked sulfhydryl oxidase ALR (P55789 whole entry): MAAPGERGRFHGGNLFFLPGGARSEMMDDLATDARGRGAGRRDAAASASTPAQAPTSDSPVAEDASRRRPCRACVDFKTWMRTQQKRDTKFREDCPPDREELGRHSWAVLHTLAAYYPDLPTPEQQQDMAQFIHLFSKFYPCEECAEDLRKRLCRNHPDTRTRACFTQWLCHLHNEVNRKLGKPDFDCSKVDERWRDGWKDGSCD
Chain of DNA dC->dU-editing enzyme APOBEC-3G (Q9HC16 whole entry): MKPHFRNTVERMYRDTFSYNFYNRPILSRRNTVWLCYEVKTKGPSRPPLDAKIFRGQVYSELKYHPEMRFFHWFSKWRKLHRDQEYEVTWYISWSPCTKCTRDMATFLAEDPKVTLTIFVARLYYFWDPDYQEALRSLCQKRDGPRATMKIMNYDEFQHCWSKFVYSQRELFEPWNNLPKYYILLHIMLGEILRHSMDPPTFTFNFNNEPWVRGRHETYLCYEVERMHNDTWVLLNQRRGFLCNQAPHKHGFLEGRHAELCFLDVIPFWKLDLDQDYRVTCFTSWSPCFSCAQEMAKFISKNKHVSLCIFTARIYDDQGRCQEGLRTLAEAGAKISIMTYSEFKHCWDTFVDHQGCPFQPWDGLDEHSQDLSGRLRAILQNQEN
Chain of Genome polyprotein (P29990 2492-3391 limits assumed): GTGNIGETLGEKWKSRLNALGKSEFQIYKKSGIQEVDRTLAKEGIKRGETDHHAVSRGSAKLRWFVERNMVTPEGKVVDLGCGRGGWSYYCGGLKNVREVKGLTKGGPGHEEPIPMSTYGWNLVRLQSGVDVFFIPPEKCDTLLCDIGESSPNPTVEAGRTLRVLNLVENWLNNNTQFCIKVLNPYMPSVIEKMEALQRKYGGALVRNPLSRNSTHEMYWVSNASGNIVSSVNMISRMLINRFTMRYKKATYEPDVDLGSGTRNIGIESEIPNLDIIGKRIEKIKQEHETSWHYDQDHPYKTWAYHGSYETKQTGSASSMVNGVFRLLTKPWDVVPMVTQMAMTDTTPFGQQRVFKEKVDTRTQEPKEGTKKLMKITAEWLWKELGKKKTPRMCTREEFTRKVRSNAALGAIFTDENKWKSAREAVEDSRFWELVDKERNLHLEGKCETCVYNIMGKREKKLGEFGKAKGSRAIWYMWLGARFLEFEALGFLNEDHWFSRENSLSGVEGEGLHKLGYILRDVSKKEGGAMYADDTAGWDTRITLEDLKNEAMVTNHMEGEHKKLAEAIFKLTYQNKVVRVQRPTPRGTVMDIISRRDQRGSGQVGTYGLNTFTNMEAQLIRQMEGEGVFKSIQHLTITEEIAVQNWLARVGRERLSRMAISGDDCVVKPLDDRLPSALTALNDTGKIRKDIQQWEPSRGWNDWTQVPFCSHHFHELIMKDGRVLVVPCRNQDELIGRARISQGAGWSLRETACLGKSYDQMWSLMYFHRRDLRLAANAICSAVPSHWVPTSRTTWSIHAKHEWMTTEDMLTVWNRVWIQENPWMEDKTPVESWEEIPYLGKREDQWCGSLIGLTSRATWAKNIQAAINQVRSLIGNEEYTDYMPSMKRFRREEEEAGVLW
Chain of Glyceraldehyde-3-phosphate dehydrogenase (P04406 whole entry): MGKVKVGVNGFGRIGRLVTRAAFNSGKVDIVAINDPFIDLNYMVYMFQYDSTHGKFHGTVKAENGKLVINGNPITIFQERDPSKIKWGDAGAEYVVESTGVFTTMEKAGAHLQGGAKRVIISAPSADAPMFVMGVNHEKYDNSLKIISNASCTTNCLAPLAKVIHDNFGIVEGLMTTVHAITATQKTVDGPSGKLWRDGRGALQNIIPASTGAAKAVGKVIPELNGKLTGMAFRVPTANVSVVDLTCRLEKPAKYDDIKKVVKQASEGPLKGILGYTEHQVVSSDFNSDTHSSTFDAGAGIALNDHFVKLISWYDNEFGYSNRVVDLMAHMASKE
Chain of Luciferin 4-monooxygenase (P08659 whole entry): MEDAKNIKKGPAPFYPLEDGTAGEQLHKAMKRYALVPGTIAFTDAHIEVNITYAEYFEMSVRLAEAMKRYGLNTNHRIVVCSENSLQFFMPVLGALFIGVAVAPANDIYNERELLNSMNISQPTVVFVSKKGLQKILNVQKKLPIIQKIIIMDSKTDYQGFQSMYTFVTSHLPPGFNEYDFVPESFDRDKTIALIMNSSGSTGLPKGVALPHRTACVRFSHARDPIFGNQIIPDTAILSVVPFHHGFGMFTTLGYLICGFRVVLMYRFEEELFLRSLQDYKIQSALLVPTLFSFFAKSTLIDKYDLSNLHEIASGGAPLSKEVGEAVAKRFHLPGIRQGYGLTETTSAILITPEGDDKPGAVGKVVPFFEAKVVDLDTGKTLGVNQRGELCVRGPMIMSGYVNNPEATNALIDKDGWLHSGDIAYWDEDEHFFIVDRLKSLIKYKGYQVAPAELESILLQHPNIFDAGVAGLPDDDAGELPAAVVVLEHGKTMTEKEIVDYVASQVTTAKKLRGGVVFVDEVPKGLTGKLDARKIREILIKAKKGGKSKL

COCCCN=C(S)NN=C(S)Nc1ccc(F)cc1F
IC50 [1]: 10.1 µM (active)

COc1cccc(N2C(=O)C(Cl)=C(N3CCN(c4ccccc4)CC3)C2=O)c1
IC50 [2]: > 50 µM (inconclusive)

CCOC(=O)Cc1nn(CC)c(=O)c2ccccc12
EC50 (cells [3]): > 350 µM (not active)
EC50 (cells [4]): > 350 µM (not active)

Cc1nnc2c3ccccc3c(-c3ccccc3)nn12
IC50 [5]: > 80 µM (inactive)

Nc1nnc(S)n1-c1ccc(Cl)cc1
IC50 [1]: 23.7 µM (active)

Cc1ccc(Sc2ccc(C=C3C(=O)N(C)C(=O)N(C)C3=O)o2)cc1
EC50 [6]: > 300 µM (not active)
AC50 [7]: 0.25 µM (active)
IC50 (Genome polyprotein): 14.5 µM (active)
EC50 [8]: 25.5 µM (inconclusive)
IC50 (cells [9]): 21.4 µM (active)

O=C(Nc1ccccc1)c1ccc(NCCc2ccccc2)c([N+](=O)[O-])c1
EC50 [10]: > 99 µM (inactive)
EC50 [11]: 84.3 µM (inactive)

CC(C)c1nnc(NC(=O)CCC(=O)NC2CC2)s1
EC50 (cells [3]): > 350 µM (not active)
EC50 [12]: > 112 µM (not active)
EC50 [13]: > 112 µM (not active)
EC50 (cells [4]): > 350 µM (not active)

FC(F)(F)c1ccc(CSc2ccccn2)cc1
EC50 (cells [3]): 70 µM (active)
EC50 (cells [4]): > 350 µM (not active)

CCn1c(CN2CCN(c3ccc(Cl)cc3)CC2)nc2ccccc21
IC50 [5]: > 80 µM (inactive)

CN1CCN(c2ccc(NC(=O)c3ccc([N+](=O)[O-])o3)cc2Cl)CC1
AC50 [14]: 9.02 µM (active)

CC1=CC2=C(C=O)C(=O)C(C)(O)C(O)C2=CO1 (configuration not stated)
EC50 [10]: > 99 µM (inactive)
EC50 [11]: > 99 µM (inactive)

CCOC(=O)/C(C#N)=N\Nc1cc(Cl)ccc1OC
EC50 [10]: > 99 µM (inactive)
EC50 [11]: 44.1 µM (inactive)

O=[N+]([O-])c1ccc(N/N=C/c2ccccc2)c(F)c1
EC50 [10]: > 99 µM (inactive)
CC50 [15]: > 50 µM (active)
EC50 [11]: 27.2 µM (inactive)

COc1cc(/C=c2\sc3n(c2=O)CCCN=3)ccc1O
AC50 [7]: 4.19 µM (active)
IC50 (Large T antigen): 16.2 µM (active)
IC50 [16]: 15.6 µM (active)

COc1cc(/C=N/NC(=O)c2ccccc2)ccc1O
IC50 (Large T antigen): 10.5 µM (active)
IC50 [16]: 29.9 µM (active)

NS(=O)(=O)c1ccc(N/N=C/c2ccc[nH]2)c([N+](=O)[O-])c1
IC50 (Large T antigen): 65.5 µM (active)

COc1cc(/C=N/Nc2nc(Nc3ccccc3)nc(N3CCOCC3)n2)ccc1OC(=O)c1ccco1
IC50 [5]: > 80 µM (inactive)
EC50 [17]: 0.895 µM (active)
EC50 [18]: 6.73 µM (active)
